{"source": "patent US20080194020A1", "about": "“Methods For Producing Dendritic Cells That Have Acquired Ctl-Inducing Ability” (Medical and Biological Laboratories Co., Ltd., priority 2004, published 2008)", "assay_type_in_all_cases": "cell-based, mouse", "key": {"DC2.4 cells [1]": {"tested_on": "DC2.4 cells", "test": "MHC class I cross-presentation by DC2.4 cells to OT-I CD8+ T cells (IL-2 ELISA)", "settings": "for effect on stimulation of OT-I CD8+ T cells by OVA (IL-2 production) / effect on stimulation of OT-I CD8+ T cells by SIINFEKL peptide (IL-2 production): FIG. 8b; for effect on stimulation of OT-I CD8+ T cells by OVA (IL-2 production): OVA 250 μg mL−1; for effect on stimulation of OT-I CD8+ T cells by SIINFEKL peptide (IL-2 production): SIINFEKL 10 ng mL−1", "source_text": "Whether knock-down of cellular components involved in ERAD decreases the cross-presentation of exogenous OVA antigen was examined using a system for evaluating the level of antigen presentation, which uses naive CD8^+ T cells from OT-I mice and DC2.4 cells. The DC2.4 cells used as a model of dendritic cells are of the H-2Kb mouse MHC class I haplotype. OT-I (H-2Kb) mice are transgenic mice expressing a T cell receptor (TCRα and β) that recognizes an antigenic peptide (SIINFEKL) (SEQ ID NO: 15) derived from OVA presented on the H-2Kb molecules. The CD8^+ cells of OT-I mice are activated when they recognize OVA peptides presented by BMDCs derived from H-2Kb mice or by DC2.4 cells. When OVA or bOVA is incubated with and affixed onto DC2.4 cells and the cells are further incubated with naive CD8^+ T cells of OT-I mice, the amount of IL-2 produced by OT-I CD8^+ T cells serves as an index of T-cell stimulation as a result of OVA antigen presented by DC2.4 cells.\nParental or knocked-down DC2.4 cells were pre-incubated in a culture medium supplemented with 50 μg mL^−1 polymyxin B for 30 minutes in the presence or absence of lactacystin or MG-132, and incubated with OVA (250 μg mL^−1) or SIINFEKL peptides (10 ng mL^−1) for six hours. The cells were washed, fixed with 1% paraformaldehyde, and aliquoted into microtiter plates (5×10^4 per well). 5×10^4 CD8^+ T cells purified from splenocytes of OT-1 mice using magnetic beads were added to each well and after a 24-hour incubation, the IL-2 secretion was measured by ELISA (BD Biosciences) in triplicate.\nDC2.4 cells were incubated with OVA (0, 50, or 250 μg/mL) in RPMI1640/10c% FCS for six hours at 37° C., in the presence or absence of pig-derived HSP90 (10 μg/mL). After washing away the antigen and HSP, OT-I CD8^+ T cells were added, cells were cultured overnight at 37° C., and the amount of IL-2 comprised in the supernatant was measured by the ELISA method.\nThe timing of the addition of HSP90 (10 μg/mL) and OVA (250 μg/mL) to DC2.4 cells was varied, and the effect on class I antigen presentation was observed. (i) HSP90 was added first, DC2.4 cells were washed, and then OVA was added. (ii) HSP90 and OVA were added simultaneously to DC2.4 cells. (iii) OVA was added first, and after washing DC2.4 cells, HSP90 was added. The results obtained under these three conditions were compared. As a control for all these conditions, an experiment in which only OVA, but not HSP90, was added was also carried out.\nUnder condition (i), HSP90 was added to DC2.4 cells, the cells were cultured for 30 minutes and then washed to remove HSP90. Next, OVA was added and the cells were cultured for three hours. Thereafter, OVA was removed by washing, and cells were cultured in just the culture medium for three hours. DC2.4 cells activated with OVA by the above procedure were plated in a 96-well plate, OT-I mouse-derived CD8^+ T cells were added to this, and after culturing overnight, the amount of IL-2 released into the supernatant was measured by ELISA.\nUnder condition (ii), OVA and HSP90 were added simultaneously to DC2.4 cells, cells were cultured for three hours, then washed, and cultured in just the culture medium for three hours. Thereafter, the procedures to investigate the activation of OT-I mouse-derived CD8^+ T cells was carried out similarly to in (i) above.\nUnder condition (iii), OVA was first added to DC2.4 cells, cells were cultured for three hours, and then washed to remove OVA. Next, HSP90 was added, and the cells were cultured for another three hours. The procedures that follow were carried out similarly to that of (i) and (ii). Meanwhile, timings were set such that the incubation times during the stage in which cells are in contact with OVA and the stage at which OVA has been taken up were the same under conditions (i) to (iii)."}, "DC2.4 cells [2]": {"tested_on": "DC2.4 cells", "test": "Degradation of cell-bound bOVA in DC2.4 cells (pulse-chase, SA beads, Western blot)", "settings": "for effect on decrease (degradation) of cell-bound bOVA: DC2.4 cells incubated with bOVA one hour, chased up to four hours, inhibitor present; for effect on degradation of bOVA taken up into cells: FIG. 1b; for effect on degradation of accumulated bOVA (ERAD inhibition): DC2.4 cells pulsed with bOVA in the presence of MG-132, chased four hours; for effect on bOVA degradation: FIG. 4b", "protocol": "Next, DC2.4 cells were incubated with bOVA for one hour, and this was then chased for up to four hours. Cell-bound bOVA was recovered from total cell lysates by streptavidin-agarose and separated by SDS-PAGE.\nDepletion of Ca^2+ in the ER is known to inhibit ERAD. Thapsigargin (Tg) is known to decrease the Ca^2+ concentration in the ER lumen by binding to the ER membrane and functioning as an ionophore and to inhibit ERAD. Thus, in the presence of Tg, bOVA degradation by ERAD is predicted to be suppressed. DC2.4 cells were pulsed with bOVA in the presence of MG-132, then washed with PBS or with PBS containing 1 mM EGTA, and then chased for four hours.\nFurthermore, the effect of tunicamycin treatment on bOVA accumulation was examined. When cells are treated with tunicamycin (Tm), N-type glycosylation is inhibited, and abnormally folded proteins accumulate in the ER lumen."}, "DC2.4 cells [3]": {"tested_on": "DC2.4 cells", "test": "MHC class II antigen presentation by DC2.4 cells to OT-II CD4+ T cells (IL-2 production)", "settings": "DC2.4 cells pretreated in the presence of NH4Cl, cultured with OVA", "protocol": "DC2.4 cells pretreated in the presence of NH4Cl were cultured with OVA, and then the stimulation of OT-I CD8^+ T cells in response to MHC class I antigen presentation (circles) and stimulation of OT-II CD4^+ T cells in response to MHC class II antigen presentation (triangles) was determined by measuring IL-2 production levels. IL-2 production level in the presence of NH4Cl was expressed as a ratio relative to the control (IL-2 production was 700 pg/mL relative to OT-I, and 20 pg mL relative to OT-II)."}}, "note": "Peptide text beside a SMILES is read from it. * marks the point of attachment. Cbz = O=C(OCc1ccccc1)*"}
{"molecule": "CC(=O)N[C@@H](CSC(=O)[C@]1([C@@H](O)C(C)C)NC(=O)[C@H](C)[C@@H]1O)C(=O)O", "note": "[lactacystin, reference compound]", "values": [{"measurement": "effect on stimulation of OT-I CD8+ T cells by OVA (IL-2 production)", "setting": "DC2.4 cells [1]; Lactastatin 10 μM", "value": "suppressed stimulation by OVA"}, {"measurement": "effect on stimulation of OT-I CD8+ T cells by SIINFEKL peptide (IL-2 production)", "setting": "DC2.4 cells [1]; Lactastatin 10 μM", "value": "did not suppress stimulation by the SIINFEKL peptide"}, {"measurement": "effect on decrease (degradation) of cell-bound bOVA", "setting": "DC2.4 cells [2]", "value": "this decrease was blocked"}, {"measurement": "effect on degradation of bOVA taken up into cells", "setting": "DC2.4 cells [2]; lactastatin 2 μM", "value": "reduced the degradation of bOVA taken up into cells"}]}
{"molecule": "tunicamycin", "values": [{"measurement": "effect on degradation of accumulated bOVA (ERAD inhibition)", "setting": "DC2.4 cells [2]", "value": "bOVA degradation was inhibited"}, {"measurement": "effect on bOVA degradation", "setting": "DC2.4 cells [2]; tunicamycin 2 g", "value": "bOVA degradation is inhibited"}]}
{"molecule": "C/C=C(/C)C(=O)O[C@H]1C(C)=C2[C@H]([C@@H]1OC(=O)CCCCCCC)[C@@](C)(OC(C)=O)C[C@H](OC(=O)CCC)[C@@]1(O)[C@H]2OC(=O)[C@@]1(C)O", "note": "[thapsigargin, Thapsigargin]", "values": [{"measurement": "effect on degradation of accumulated bOVA (ERAD inhibition)", "setting": "DC2.4 cells [2]", "value": "inhibited the degradation of accumulated bOVA"}, {"measurement": "effect on bOVA degradation", "setting": "DC2.4 cells [2]; thapsigargin 300 nM", "value": "bOVA degradation is inhibited"}]}
{"molecule": "Cl.N", "note": "[NH4Cl, Ammonium chloride, reference compound]", "values": [{"measurement": "effect on presentation of OVA antigen with MHC class I to OT-I CD8+ T cells", "setting": "DC2.4 cells [1]; DC2.4 cells pretreated with inhibitor, cultured with OVA", "value": "did not reduce the presentation of the OVA antigen with MHC class I"}, {"measurement": "effect on decrease (degradation) of cell-bound bOVA", "setting": "DC2.4 cells [2]", "value": "did not significantly affect bOVA degradation"}, {"measurement": "effect on degradation of bOVA taken up into cells", "setting": "DC2.4 cells [2]; NH4Cl 50 mM", "value": "did not reduce this degradation"}, {"measurement": "effect on presentation of OVA antigen with MHC class II to OT-II CD4+ cells", "setting": "DC2.4 cells [3]", "value": "inhibited the presentation with MHC class II"}]}
{"molecule": "CC(C)C[C@@H](C=O)NC(=O)[C@H](CC(C)C)NC(=O)[C@H](CC(C)C)NC(=O)OCc1ccccc1", "note": "[MG-132, reference compound] (Cbz-Leu-Leu-Leu-aldehyde)", "values": [{"measurement": "effect on stimulation of OT-I CD8+ T cells by OVA (IL-2 production)", "setting": "DC2.4 cells [1]; MG-132 25 μM", "value": "suppressed stimulation by OVA"}, {"measurement": "effect on stimulation of OT-I CD8+ T cells by SIINFEKL peptide (IL-2 production)", "setting": "DC2.4 cells [1]; MG-132 25 μM", "value": "did not suppress stimulation by the SIINFEKL peptide"}, {"measurement": "effect on decrease (degradation) of cell-bound bOVA", "setting": "DC2.4 cells [2]", "value": "this decrease was blocked"}, {"measurement": "effect on degradation of bOVA taken up into cells", "setting": "DC2.4 cells [2]; MG-132 10 μM", "value": "reduced the degradation of bOVA taken up into cells"}]}
